# Data taken from ChEMBL document CHEMBL3124779, “Discovery of ABT-267, a pan-genotypic inhibitor of HCV NS5A” (J Med Chem, 2014).
# Key:
# Hepatitis C virus [1] = assay: Antiviral activity against HCV genotype 1 infected in human assessed as cure rate; format: functional, Hepacivirus hominis
# [2] = Half life in rat at 3 mg/kg, po; format: ADME, organism-based; design: dose 3 mg/kg, route oral; conditions: in vivo
# [3] = Cmax in monkey at 2.5 mg/kg, po; format: ADME, organism-based, Macaca mulatta; design: dose 2.5 mg/kg, route oral; conditions: rhesus monkey, in vivo
# [4] = AUC in rat at 3 mg/kg, po; format: ADME, organism-based; design: dose 3 mg/kg, route oral; conditions: plasma
# [5] = Tmax in monkey at 2.5 mg/kg, po; format: ADME, organism-based, Macaca mulatta; design: dose 2.5 mg/kg, route oral; conditions: rhesus monkey, in vivo
# [6] = Clearance in monkey at 1 mg/kg, iv; format: ADME, organism-based, Macaca mulatta; design: dose 1 mg/kg, route intravenous; conditions: rhesus monkey, in vivo
# [7] = AUC in dog at 2.5 mg/kg, po; format: ADME, organism-based, Canis lupus familiaris; design: dose 2.5 mg/kg, route oral; conditions: plasma
# [8] = Metabolic stability in human liver microsomes assessed as compound remaining after 30 mins; format: ADME; conditions: read-out: Stability
# [9] = Oral bioavailability in dog at 2.5 mg/kg; format: ADME, organism-based, Canis lupus familiaris; conditions: in vivo
# [10] = Half life in dog at 2.5 mg/kg, po; format: ADME, organism-based, Canis lupus familiaris; design: dose 2.5 mg/kg, route oral; conditions: in vivo
# Hepatitis C virus [11] = assay: Ratio of EC50 for HCV1b Con1 infected in human HuH7 cells in presence of 40% human plasma to EC50 for HCV1b Con1 infected in human HuH7 cells in absence of 40% human plasma; format: functional, Hepacivirus hominis, isolate Con1, Huh-7
# [12] = Metabolic stability in rat liver microsomes assessed as compound remaining after 30 mins; format: ADME; conditions: read-out: Stability
# Hepatitis C virus [13] = assay: Antiviral activity against HCV1b Con1 infected in human HuH7 cells assessed as inhibition of viral replication after 4 days by luciferase reporter gene assay; format: functional, organism-based, Hepacivirus hominis; conditions: isolate Con1, Huh-7, 96 h
# Hepatitis C virus [14] = assay: Antiviral activity against HCV1b Con1 infected in human HuH7 cells assessed as inhibition of viral replication after 4 days by luciferase reporter gene assay in presence of 40% human plasma; format: functional, organism-based, Hepacivirus hominis; conditions: isolate Con1, Huh-7, Plasma, 96 h
# [15] = Tmax in dog at 2.5 mg/kg, po; format: ADME, organism-based, Canis lupus familiaris; design: dose 2.5 mg/kg, route oral; conditions: in vivo
# [16] = Oral bioavailability in rat at 3 mg/kg; format: ADME, organism-based; conditions: in vivo
# [17] = Volume of distribution at steady state in dog at 1 mg/kg, iv; format: ADME, organism-based, Canis lupus familiaris; design: dose 1 mg/kg, route intravenous; conditions: in vivo, read-out: Vdss
# [18] = Clearance in dog at 1 mg/kg, iv; format: ADME, organism-based, Canis lupus familiaris; design: dose 1 mg/kg, route intravenous; conditions: in vivo
# Hepatitis C virus [19] = assay: Antiviral activity against HCV1a H77 infected in human HuH7 cells assessed as inhibition of viral replication after 4 days by luciferase reporter gene assay in presence of 40% human plasma; format: functional, organism-based, Hepacivirus hominis; conditions: genotype 1a H77, Huh-7, Plasma, 96 h
# [20] = Volume of distribution at steady state in rat at 3 mg/kg, iv; format: ADME, organism-based; design: dose 3 mg/kg, route intravenous; conditions: in vivo, read-out: Vdss
# [21] = Lipophilicity, log D of the compound at pH 7.4 by HPLC analysis; format: physicochemical; conditions: buffer
# [22] = Cmax in dog at 2.5 mg/kg, po; format: ADME, organism-based, Canis lupus familiaris; design: dose 2.5 mg/kg, route oral; conditions: in vivo
# [23] = Half life in monkey at 2.5 mg/kg, po; format: ADME, organism-based, Macaca mulatta; design: dose 2.5 mg/kg, route oral; conditions: rhesus monkey, in vivo
# Hepatitis C virus [24] = assay: Ratio of EC50 for HCV1a H77 infected in human HuH7 cells in presence of 40% human plasma to EC50 for HCV1a H77 infected in human HuH7 cells in absence of 40% human plasma; format: functional, Hepacivirus hominis, genotype 1a H77, Huh-7
# [25] = Half life in rat at 3 mg/kg, iv; format: ADME, organism-based; design: dose 3 mg/kg, route intravenous; conditions: in vivo
# [26] = Kinetic solubility of the compound in 10 mM of phosphate buffer at pH 7.2 by CLND method; format: physicochemical; conditions: read-out: Kinetic_solubility
# [27] = Clearance in rat at 3 mg/kg, iv; format: ADME, organism-based; design: dose 3 mg/kg, route intravenous; conditions: in vivo
# [28] = Volume of distribution at steady state in monkey at 1 mg/kg, iv; format: ADME, organism-based, Macaca mulatta; design: dose 1 mg/kg, route intravenous; conditions: rhesus monkey, in vivo, read-out: Vdss
# [29] = Tmax in rat at 3 mg/kg, po; format: ADME, organism-based; design: dose 3 mg/kg, route oral; conditions: in vivo
# [30] = Half life in monkey at 1 mg/kg, iv; format: ADME, organism-based, Macaca mulatta; design: dose 1 mg/kg, route intravenous; conditions: rhesus monkey, in vivo
# Hepatitis C virus [31] = assay: Antiviral activity against HCV1a H77 infected in human HuH7 cells assessed as inhibition of viral replication after 4 days by luciferase reporter gene assay; format: functional, organism-based, Hepacivirus hominis; conditions: genotype 1a H77, Huh-7, 96 h
# [32] = Cmax in rat at 3 mg/kg, po; format: ADME, organism-based; design: dose 3 mg/kg, route oral; conditions: in vivo
# [33] = Oral bioavailability in monkey at 2.5 mg/kg; format: ADME, organism-based, Macaca mulatta; conditions: rhesus monkey, in vivo
# [34] = AUC in monkey at 2.5 mg/kg, po; format: ADME, organism-based, Macaca mulatta; design: dose 2.5 mg/kg, route oral; conditions: rhesus monkey, plasma
# [35] = Half life in dog at 1 mg/kg, iv; format: ADME, organism-based, Canis lupus familiaris; design: dose 1 mg/kg, route intravenous; conditions: in vivo
Compound,half-life [2] [h],AUC [4] [ng·h/mL],AUC [7] [ng·h/mL],remaining at 0.5 h [8] [%],bioavailability [9] [%],Ratio EC50 (Hepatitis C virus [11]),remaining at 0.5 h [12] [%],EC50 (Hepatitis C virus [13]) [nM],EC50 (Hepatitis C virus [14]) [nM],bioavailability [16] [%],EC50 (Hepatitis C virus [19]) [nM],Vd [20] [L/kg],logD [21],Ratio EC50 (Hepatitis C virus [24]),half-life [25] [h],solubility kinetic [26] [µM],clearance [27] [mL/min/kg],Tmax [29] [h],EC50 (Hepatitis C virus [31]) [nM],Cmax [32] [ng/mL],further results
CCC[C@H](NC(=O)[C@@H]1[C@H]2CCC[C@H]2CN1C(=O)[C@@H](NC(=O)[C@@H](NC(=O)c1cnccn1)C1CCCCC1)C(C)(C)C)C(=O)C(=O)NC1CC1,–,–,–,–,–,–,–,–,–,–,–,–,–,–,–,–,–,–,–,–,Activity (Hepatitis C virus [1]): <=75%
COC(=O)N[C@H](C(=O)N1CCC[C@H]1C(=O)Nc1ccc([C@H]2CC[C@H](c3ccc(NC(=O)[C@@H]4CCCN4C(=O)[C@@H](NC(=O)OC)C(C)(C)C)cc3)N2c2ccc(F)cc2)cc1)C(C)(C)C,7,10200,18300,54,94,20,69,0.008,0.162,39,20.8,1,5.2,18,7.5,3.9,1.67,2.3,1.18,960,Cmax [3]: 120 ng/mL; Tmax [5]: 1.7 h; clearance [6]: 15.5 mL/min/kg; half-life [10]: 10.3 h; Tmax [15]: 2.7 h; Vd [17]: 1.6 L/kg; clearance [18]: 2.17 mL/min/kg; Cmax [22]: 1070 ng/mL; half-life [23]: 5.4 h; Vd [28]: 4.1 L/kg; half-life [30]: 4.6 h; bioavailability [33]: 18%; AUC [34]: 490 ng·h/mL; half-life [35]: 9.1 h
COC(=O)N[C@H](C(=O)N1CCC[C@H]1C(=O)Nc1ccc([C@@H]2CC[C@@H](c3ccc(NC(=O)[C@@H]4CCCN4C(=O)[C@@H](NC(=O)OC)[C@@H](C)OC)cc3)N2c2ccc(F)cc2)cc1)[C@@H](C)OC,1.1,120,–,54,–,6,47,0.086,0.539,14,1.4,1.3,3,8,0.6,9.6,56.7,0.7,0.168,70,–
COC(=O)N[C@H](C(=O)N1CCC[C@H]1C(=O)Nc1ccc([C@@H]2CC[C@@H](c3ccc(NC(=O)[C@@H]4CCCN4C(=O)[C@@H](NC(=O)OC)[C@H]4CCOC4)cc3)N2c2ccc(F)cc2)cc1)[C@H]1CCOC1,0.6,20,–,41,–,24,42,0.054,1.27,1.5,1.39,0.5,3.2,14,0.9,9.7,31.7,0.4,0.102,20,–
COC(=O)N[C@H](C(=O)N1CCC[C@H]1C(=O)Nc1ccc([C@H]2CC[C@H](c3ccc(NC(=O)[C@@H]4CCCN4C(=O)[C@@H](NC(=O)OC)[C@H]4CCOC4)cc3)N2c2ccc(F)cc2)cc1)[C@H]1CCOC1,0.5,20,–,47,–,9,46,0.106,0.917,3.2,1.92,1.5,3.2,7,0.8,8.5,66.7,0.3,0.281,30,–
COC(=O)N[C@H](C(=O)N1CCC[C@H]1C(=O)Nc1ccc([C@@H]2CC[C@@H](c3ccc(NC(=O)[C@@H]4CCCN4C(=O)[C@@H](NC(=O)OC)C(C)C)cc3)N2c2ccc(C(F)(F)F)cc2)cc1)C(C)C,12.1,500,850,52,5.5,10,56,0.0071,0.072,16,0.65,8.9,4.8,11,6,3.4,20,2.2,0.057,30,half-life [10]: 5.8 h; Tmax [15]: 4.7 h; Vd [17]: 1.3 L/kg; clearance [18]: 2.67 mL/min/kg; Cmax [22]: 70 ng/mL; half-life [35]: 6 h
COC(=O)N[C@H](C(=O)N1CCC[C@H]1C(=O)Nc1ccc([C@H]2CC[C@H](c3ccc(NC(=O)[C@@H]4CCCN4C(=O)[C@@H](NC(=O)OC)C(C)C)cc3)N2c2ccc(C(F)(F)F)cc2)cc1)C(C)C,4.9,1360,370,58,4.2,12,58,0.0062,0.077,13,2.55,1.3,4.9,9,4.2,3.2,4.83,1.5,0.299,200,half-life [10]: 5.5 h; Tmax [15]: 1.7 h; Vd [17]: 1.5 L/kg; clearance [18]: 4.83 mL/min/kg; Cmax [22]: 50 ng/mL; half-life [35]: 4.4 h
COC(=O)N[C@H](C(=O)N1CCC[C@H]1C(=O)Nc1ccc([C@H]2CC[C@H](c3ccc(NC(=O)[C@@H]4CCCN4C(=O)[C@@H](NC(=O)OC)C(C)C)cc3)N2c2ccc(F)cc2)cc1)C(C)C,2.8,6360,1280,38,62,5,38,0.042,0.208,22,11.1,0.5,4.6,4,3.3,6,2.17,1.3,2.53,1380,Cmax [3]: 50 ng/mL; Tmax [5]: 1.5 h; clearance [6]: 51.7 mL/min/kg; half-life [10]: 2.2 h; Tmax [15]: 1.2 h; Vd [17]: 1.9 L/kg; clearance [18]: 21.7 mL/min/kg; Cmax [22]: 420 ng/mL; half-life [23]: 0.6 h; Vd [28]: 1.5 L/kg; half-life [30]: 0.8 h; bioavailability [33]: 10%; AUC [34]: 80 ng·h/mL; half-life [35]: 2 h
CC(C)(C)NC(=O)N[C@H](C(=O)N1C[C@H]2[C@@H]([C@H]1C(=O)NC(CC1CCC1)C(=O)C(N)=O)C2(C)C)C(C)(C)C (stereo partly specified) [BOCEPREVIR],–,–,–,–,–,–,–,–,–,–,–,–,–,–,–,–,–,–,–,–,Activity (Hepatitis C virus [1]): <=75%
